Reference: PubChem BioAssay (NCI)
Where “and” joins values, the source holds several entries; their conditions need not be identical. Equal entries are not always repeated.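 How tested: cells in 96-well plates exposed to compound for 48 hours at five concentrations. GI50 marks 50% less growth. TGI marks complete inhibition of growth.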

Experiments:
Assay in all cases: NCI-60 cell line screen, 48 h
HCT-116 colon = system: HCT-116 colon
A549 NSCLC = system: A549 NSCLC
A498 renal = system: A498 renal
RXF 393 renal = system: RXF 393 renal
MOLT-4 leukemia = system: MOLT-4 leukemia
SN12C renal = system: SN12C renal
MCF7 breast = system: MCF7 breast
M14 melanoma = system: M14 melanoma
SK-MEL-28 melanoma = system: SK-MEL-28 melanoma
EKVX NSCLC = system: EKVX NSCLC

Structure (SMILES)	GI50 (HCT-116 colon) [nM]	TGI (HCT-116 colon) [µM]	GI50 (A549 NSCLC) [nM]	TGI (A549 NSCLC) [µM]	GI50 (A498 renal) [nM]	TGI (A498 renal) [µM]	GI50 (RXF 393 renal) [nM]	TGI (RXF 393 renal) [µM]	GI50 (MOLT-4 leukemia) [nM]	TGI (MOLT-4 leukemia) [µM]	GI50 (SN12C renal) [nM]	TGI (SN12C renal) [µM]	GI50 (MCF7 breast) [nM]	TGI (MCF7 breast) [µM]	GI50 (M14 melanoma) [nM]	TGI (M14 melanoma) [µM]	GI50 (SK-MEL-28 melanoma) [nM]	TGI (SK-MEL-28 melanoma) [µM]	GI50 (EKVX NSCLC) [µM]	TGI (EKVX NSCLC)
CCCN1C(=O)/C(=C/c2ccc(SC(F)(F)F)cc2)SC1=Nc1ccc(OC)cc1	6290	17.5	8870	30.1	11000	21.9	5350	16.9	> 50000	> 50	13600	> 50	15600	> 50	18600	> 50	28400	> 50	16.7	48.3 µM
Clc1ccc2c(NCCNc3nc(N4CCOCC4)nc4ccccc34)ccnc2c1	1660	3.3	2960	10.6	1870	4.62	1610	3.63	3330	14.1	2750	7.69	3820	17.2	1940	3.89	2100	4.12	4	16.4 µM
N#C/C(=C\c1ccc(O)cc1)C(N)=O		> 100		> 100		> 100		> 100		> 100		> 100		> 100		> 100		> 100		97.8 µM and > 100 µM
CC1(C)N=C(N)N=C(N)N1c1ccc(CCCC(=O)Nc2ccc(S(=O)(=O)F)cc2)cc1	3690	> 100	9820	> 100	37500	> 100	4220	> 100	14200	> 100	6150	> 100	5230	> 100	5440	> 100	16000	> 100		
COc1cc2ncn(-c3cc(OCc4ccccc4C(F)(F)F)c(C(N)=O)s3)c2cc1OC	246	> 25	204	> 25	186	5.2	102	4.02	130	> 25	2670	> 25	28.2	> 25	141	> 25	1500	> 25	3.69	> 25 µM
COc1cc2c(c(OC)c1OC)-c1cc(I)c(O)cc1[C@@H](NC(C)=O)CC2	40.9	19.4	69.5	> 40.1	45.9	5.5	49.6	> 100	43.7	> 100	106	> 100	33.6	> 100	31.1	0.0969	999	> 100	0.419	> 100 µM
CCN(CC)c1ccc(/C=N/NC(=O)Cc2ccc(Nc3ccnc(C(F)(F)F)c3)cc2)c(O)c1	460	> 100	1190	> 100	2640	> 89.5	1030	98.5	370	> 100	1150	> 100	461	> 100	637	5.93	1100	> 78	0.98	> 77 µM
